Measured values: patent publication US4309305A, “In vitro removal of actinide (IV) ions” (priority 1979, dated 1982)

Assays:
[1] = pH-titration of the constituent catechol groups; type: physicochemical; details: 4 protons, 4 constituent catechol groups
Procedure: Compound 2. Using method B, precusor 3 (1.0 g, 1.0 mmol) dissolved in CH2 Cl2 (25 ml) was added dropwise (15 min) via an addition funnel to an ice bath cooled, vigorously stirred solution of BBR3 (2 ml, 21 mmol) in CH2 Cl2 solution (25 ml). The ice bath was allowed to warm up to room temperature as the reaction slurry was stirred overnight. Cautious addition of H2 O (20 ml) was followed by an additional 2 hrs stirring to hydrolyze all boron compounds. Crude product was collected by filtration and washed well with H2 O. The pink-tan solid was dissolved in MeOH and precipitated by the addition of Et2 O. Drying at 115° (5-10 microns) overnight gave the demethylated product, compound 2 (0.88 mmol, 88%) as hygroscopic powder which analyzed with two waters of crystallization: m.p.
Compound 3 (1.0 g, 1.2 mmol) was dissolved in 98% H2 SO4 (5 ml), then SOCl2 (5 ml, 55 mmol) was added dropwise over a period of 1 hr with vigorous stirring. The reactants were protected from the atmosphere with a Drierite tube. After stirring overnight, the reaction mixture was poured onto ice. Workup as in method C gave white solid, 1.49 g (1.0 mmol, 85%) which analyzed as compound 4.3 NaCl.H2 O: IR (KBr) identical to that recorded in method A; purity also established by pH-titration giving pKa1 8.12 (4 protons) and pKa2 12.0 (4 protons) for the four constituent catechol groups.
Using precisely the same Method D, compound 7 was converted to compound 8. Thus was obtained hygroscopic white solid, 1.4 g (90%); IR (KBr) 2800-3700 s, 1600 s (>N--CO--), 1475, 1425 m, 1150-1300 s (--SO3 ^-1), 1100, 1045 s (--SO3^-), 620 (--SO3^-); purity also established by pH-titration giving pKa1 7.49 (4 protons) and pKa2 12.1 (4 protons) for the four constituent catechol groups.

animals = experiment: Toxicity studies / toxicity to animals; details: in vivo
[2] = Distribution of ^238 Pu-citrate in Mouse Tissues (actinide-ion sequestering activity, animal studies); type: in vivo; set-up: Liver, distribution of ^238 Pu-citrate (mean) / Skel, distribution of ^238 Pu-citrate (mean) / G.I., distribution of ^238 Pu-citrate (mean) / Kidney, distribution of ^238 Pu-citrate (mean) / Total, distribution of ^238 Pu-citrate: unit not given here
Procedure: Specifically, animal studies were carried out with compounds 2, 3, 4, and 10.
Distribution of ^238 Pu-Citrate in Mouse Tissues
Age of animals 74 weeks 74 weeks
^(b) Animals injected I.P. (Intraperitoneum)
(§1) Distribution of ^238 Pu-citrate in Mouse Tissues
Age of Animals 68 weeks 68 weeks
^(a) Animals injected I.M. (Intramuscular)
as §1
^(b) Animals injected I.P.
Age of animals 18 weeks 18 weeks
^(a) Animals injected I.M.

[3] = qualitative observation of dissolution of Pu(IV) in the presence of the compound
[4] = I.M., killed 2 days after Pu injection, 68 weeks old
[5] = I.M., killed 1 day after Pu injection, 18 weeks old
[6] = I.P., killed 2 days after Pu injection, 74 weeks old
[7] = I.P., killed 1 day after Pu injection, 13.5 weeks old

For “1,6,11,16-N,N',N'',N'''-Tetra(2,3-dihydroxybenzoyl)tetraazahexadecane potassium sulfonate [Compound 8]”, the pKa1 [1] was 7.49 and the pKa2 [1] was 12.1.

In the case of `O=C(c1cccc(O)c1O)N1CCCN(C(=O)c2cccc(O)c2O)CCCN(C(=O)c2cccc(O)c2O)CCCN(C(=O)c2cccc(O)c2O)CCC1` [Compound 3, 1,5,9,13-N,N',N'',N'''-Tetra(2,3-dihydroxybenzoyl)tetraazacyclohexadecane], the acute toxicity (animals) is reported as “substantially acutely non-toxic”, the “G.I., distribution of ^238 Pu-citrate (mean)” value (from here on “G.I., distribution”) [2, 4] is reported as 4.4 and the “Kidney, distribution of ^238 Pu-citrate (mean)” value (“Kidney, distribution” below) [2, 4] is reported as 42.1. For the same molecule, the “Liver, distribution of ^238 Pu-citrate (mean)” value (“Liver, distribution” for short) [2, 4] was 23.3, the “Skel, distribution of ^238 Pu-citrate (mean)” value (“Skel, distribution” for short) [2, 4] was 20.3 and the “Total, distribution of ^238 Pu-citrate” value [2, 4] was 101.6. The “Urine, Feces (one value printed between both lines), distribution of ^238 Pu-citrate (mean)” value [2, 4] was 11.5.

With “1,4,8,11-N,N',N'',N'''-Tetra(2,3-dihydroxybenzoyl)tetraazaundecane potassium sulfonate [Compound 10]” the “Feces, distribution of ^238 Pu-citrate (mean)” value (“Feces, distribution” below) [2, 5] was 2.2, the “G.I., distribution” value [2, 5] was 10.2 and the “Kidney, distribution” value [2, 5] was 4.8. The “Liver, distribution” value [2, 5] was 28.8, the “Skel, distribution” value [2, 5] was 12.1 and the “Skin, distribution of ^238 Pu-citrate (mean)” value (shortened to “Skin, distribution”) [2, 5] was 5.7. For the same molecule, the “Soft Tis, distribution of ^238 Pu-citrate (mean)” value (“Soft Tis, distribution” below) [2, 5] was 7.1, the “Total, distribution of ^238 Pu-citrate” value [2, 5] was 101.1 and the “Urine, distribution of ^238 Pu-citrate (mean)” value (from here on “Urine, distribution”) [2, 5] was 29.2.

In the case of `O=C(c1cccc(O)c1O)N1CCCN(C(=O)c2cccc(O)c2O)CCN(C(=O)c2cccc(O)c2O)CCCN(C(=O)c2cccc(O)c2O)CC1` [Compound 1, 1,4,8,11-N,N',N'',N'''-Tetra(2,3-dihydroxybenzoyl)tetraazacyclotetradecane], the “dissolution of Pu(IV) in presence of compound” value ([3]; even at high pH, qualitative) is reported as “Pu(IV) dissolved in the presence of compound 1 even at high pH” and the “formation constant for the Pu(IV) complex” value ([3]; inferred from dissolution of Pu(IV) and Ksp for Pu(OH)4) is reported as “very high formation constant”.

With `O=C(c1ccc([N+](=O)[O-])c(O)c1O)N1CCCN(C(=O)c2ccc([N+](=O)[O-])c(O)c2O)CCN(C(=O)c2ccc([N+](=O)[O-])c(O)c2O)CCCN(C(=O)c2ccc([N+](=O)[O-])c(O)c2O)CC1` [Compound 2, 1,4,8,11-N,N',N'',N'''-Tetra(2,3-dihydroxy-4-nitrobenzoyl)tetraazacyclotetradecane] the toxicity to animals (animals) was “toxic to animals”, the pKa1 [1] was 5.59 and the pKa2 [1] was 11.8. The “Feces, distribution” value [2, 6] was 5.4, the “G.I., distribution” value [2, 6] was 16.3 and the “Kidney, distribution” value [2, 6] was 6.0. For the same molecule, the “Liver, distribution” value [2, 6] was 36.6, the “Skel, distribution” value [2, 6] was 7.9 and the “Skin, distribution” value [2, 6] was 11.2. For the same molecule, the “Soft Tis, distribution” value [2, 6] was 14.8, the “Total, distribution of ^238 Pu-citrate” value [2, 6] was 100 and the “Urine, distribution” value [2, 6] was 1.8.

For “1,5,9,13-N,N',N'',N'''-Tetra(2,3-dihydroxybenzoyl)tetraazacyclohexadecane sodium sulfonate [Compound 4]”, the pKa1 [1] was 8.12, the pKa2 [1] was 12.0 and the “Feces, distribution” value [2, 7] was 3.1. For the same molecule, the “G.I., distribution” value [2, 7] was 8.2, the “Kidney, distribution” value [2, 7] was 3.9 and the “Liver, distribution” value [2, 7] was 24.8. For the same molecule, the “Skel, distribution” value [2, 7] was 15.7, the “Skin, distribution” value [2, 7] was 4.1 and the “Soft Tis, distribution” value [2, 7] was 6.4. For the same molecule, the “Total, distribution of ^238 Pu-citrate” value [2, 7] was 100 and the “Urine, distribution” value [2, 7] was 33.8.
